In one experiment the test system is C. albicans DSY296. Put plainly: Antifungal MIC/MLC (broth microdilution). Format: cell-based, Candida albicans. From the text:
(§1) Twenty-three fungal strains were used in this study, including reference strains and clinical isolates of yeasts and filamentous fungi. Yeast strains included reference strains (ATCC—American Type Culture Collection and CECT—Colección Española de Cultivos Tipo) and clinical isolates: C. albicans ATCC 10231, Candida krusei ATCC 6258, C. albicans H37, C. albicans FF172, C. albicans FF176, C. albicans DSY294, C. albicans DSY296, C. glabrata DSY562, C. glabrata DSY565 and Cryptococcus neoformans CECT 1078. Filamentous fungi included Aspergillus fumigatus ATCC 240305, A. fumigatus C111, A. niger ATCC 16404, A. flavus F44, Fusarium solani FF125, F. oxysporum FF115, and dermatophytes Trichophyton rubrum FF5, T. mentagrophytes FF7, Microscoporum canis FF1 and Nannizzia gypsea FF3 (formerly Microsporum gypseum) and a species of genera Mucor, Lichetheimia and Scedosporium. Saprolegnia parasitica CBS 223.65, a reference strain of an oomycete fish pathogen, was also included. All microorganisms were kept in Sabouraud Dextrose Broth (SDB: BioMérieux, Marcy L'Etoile, France) plus glycerol (20%) at −80° C. The strains were kept in Sabouraud Dextrose Agar (SDA: BioMérieux, Marcy L'Etoile, France) slants and were sub-cultured in SDA before each test. S. parasitica was kept in Corn Meal Agar plates (CMA: BBL™ Corn Meal Agar, BD, Le Pont-de-Claix, France) and was sub-cultured in CMA before each experiment. C. albicans H37, was kindly provided by Cidilia Pina Vaz (CHSJ, Porto, Portugal) and C. albicans DSY294, C. albicans DSY296, C. glabrata DSY562, C. glabrata DSY565 were kindly provided by D. Sanglard (University of Lausanne, Switzerland). A stock solution of compound 1 (10 mg/mL), was prepared in dimethyl sulfoxide (DMSO 99%: Alfa Aesar, Kandel, Germany), kept at −20 degrees C., and freshly diluted in the appropriate culture media before each assay. In all experiments, in-test concentrations of DMSO were kept below 2%.
(§2) Antifungal activity was evaluated by determining the MIC of compound 1 by the broth microdilution method, according to CLSI guidelines (reference documents M27-A3 for yeasts and M38-A2 for filamentous fungi). Briefly, cell or spore suspensions were prepared in RPMI-1640 broth medium (Biochrom, Berlin, Germany) buffered with 3-(N-morpholino)propane sulfonic acid (MOPS) (Sigma-Aldrich, St. Louis, MO, USA) (henceforth referred to as RPMI) from fresh cultures of the different strains of fungi. For yeasts, the inoculum was adjusted to 0.5-2.5×10^3 CFU/mL. For filamentous fungi, the inoculum was adjusted to 1-3×10^3 CFU/mL for dermatophytes, and 0.4-5×10^4 CFU/mL for all other strains. […] Sterility and growth controls were included in each assay. The 96-well flat-bottomed untreated polystyrene microtiter plates which were incubated for 48 h at 35° C., with the exception of Lichetheimia spp. which was incubated at 25° C. for 48 h, and the dermatophyte strains, which incubated for 5-7 days at 25° C. […] The minimal lethal concentration (MLC) was determined by spreading 20 μL of culture collected from wells showing no visible growth on SDA plates. The MLC was determined as the lowest concentration showing complete growth inhibition after 48 h at 35 degrees C., 48 h at 25 degrees C.

For the next experiment, the system named is C. albicans H37. Kind of experiment: Antifungal MIC/MLC (broth microdilution). Format: cell-based, Candida albicans.
From the text: as §1, §2
In general terms: In broth dilution the organism is exposed to a series of concentrations in liquid medium.

The next experiment concerns C. albicans FF176. Kind of experiment: Antifungal MIC/MLC (broth microdilution). The format is cell-based, Candida albicans.
From the text: as §1, §2

Another experiment relates to C. albicans FF172. Kind of experiment: Antifungal MIC/MLC (broth microdilution). Format: cell-based, Candida albicans.
From the text: as §1, §2

For a further experiment, the system named is C. albicans DSY294. Put plainly: Antifungal MIC/MLC (broth microdilution). Format: cell-based, Candida albicans.
From the text: as §1, §2

Experiment [1] relates to C. albicans ATCC 10231. Put plainly: Propidium iodide influx assay (SYTO 9/PI). Format: cell-based, Candida albicans. As to conditions: 5 min.
Description: Influx of PI in C. albicans ATCC 10231 treated with compound 1 was evaluated using a commercial kit, which includes fluorescent nucleic acid stains SYTO™ 9 and PI, and measurements were conducted in a fluorescence microplate reader. […] The ability of PI to penetrate cells with damaged membranes makes it suitable for studying the effect of drugs on cell membranes.
In order to assess membrane integrity by the PI influx assay, a commercial kit was used (LIVE/DEAD® BacLight™ Bacterial Viability Kit, for microscopy & quantitative assays, Invitrogen by Thermo Fisher Scientific, Waltham, MA, USA), which includes fluorescent nucleic acid stains SYTO® 9 and PI. Briefly, C. albicans ATCC 10231 colonies from overnight cultures in SDA were suspended in sterile saline and adjusted to 0.5 McFarland. This suspension was then diluted in RPMI (1:50 followed by 1:20) to achieve a final concentration of 0.5-2.5×10^3 CFU/mL and the tubes were incubated overnight at 36° C. in a water bath with shaking. The following day, the cell suspensions were centrifuged at 3500 rpm for 15 min, the supernatant was removed, and the cells were carefully resuspended in 2 mL of 0.85% NaCl (VWR International, Radnor, PA, USA) prepared in ultrapure water. An aliquot of this suspension was then added to each tube of 0.85% NaCl alone (control) or 0.85% NaCl plus an appropriate amount of test compound, in a 1:10 proportion. […] Fluorescence intensity of the stained yeast suspensions was obtained in a microplate reader (Synergy HT, BioTek Instruments) by two consecutive measurements: with excitation wavelength 485 nm and emission wavelength 528 nm (SYTO® 9) and with excitation wavelength 485 nm and emission wavelength 590 nm (PI). Data were analyzed by subtracting background fluorescence from each sample, dividing fluorescence intensity of SYTO® 9 by fluorescence intensity of PI, and are presented as a percentage of control. […]
In experiment [2] the test system is C. albicans ATCC 10231. Kind of experiment: Potassium ion efflux analysis. Format: cell-based, Candida albicans. As to conditions: 5 min. The procedure:
In an embodiment, the potassium ion (K^+) efflux analysis was performed as follows ([FIG. 9]). Leakage of potassium ions is a common response to membrane-disrupting agents; therefore, extracellular K^+ was quantified by flame atomic absorption spectrometry, after 5 min of exposure to compound 1 ([FIG. 10]). […] Efflux of potassium was determined by quantification of extracellular K^+ by flame atomic absorption spectrometry. Cell suspensions of C. albicans ATCC 10231 were prepared in the same manner as described for PI influx assay, and test conditions were also the same. After 5 min of exposure, cells were centrifuged for 10 min at 3500 rpm and the supernatants were filtrated using a cellulose acetate syringe filter with a 0.22 µm pore size. Samples were analyzed with a AAnalyst 200 Atomic Absorption Spectrometer (Perkin Elmer). Four independent assays were performed and the data are presented as percentage of control (untreated cells as […] of K^+).

For the next experiment, the system named is Trichophyton rubrum FF5. Put plainly: Antifungal MIC/MLC (broth microdilution). The format is cell-based.
From the text: as §1, §2

In experiment [3] the test system is Candida albicans ATCC 10231. Kind of experiment: Antifungal MIC/MLC (broth microdilution). Format: cell-based.
From the text: as §1, §2

Another experiment concerns Microsporum canis FF1. Kind of experiment: Antifungal MIC/MLC (broth microdilution). The format is cell-based.
From the text: as §1, §2

Another experiment has as its system Nannizzia gypsea FF3. Put plainly: Antifungal MIC/MLC (broth microdilution). The format is cell-based.
From the text: as §1, §2

Setting [4] is: C. albicans DSY296, resistant to fluconazole or azoles.
[5] abbreviates: C. albicans H37, resistant to fluconazole or azoles.
[6] abbreviates: C. albicans FF176, resistant to fluconazole or azoles.

As usually defined, the MIC is the smallest concentration in the dilution series that meets the test's criterion for growth inhibition.

≈ marks a conversion by molar mass, not a printed value. Where two headings read alike, the source gives them in different places.

`C[C@H](CCC(=O)NCCN)[C@H]1CC[C@H]2[C@@H]3CC[C@@H]4C[C@H](O)CC[C@]4(C)[C@H]3C[C@H](O)[C@]12C` [Compound 1, (R)—N-(2-aminoethyl)-4-((3R,5R,8R,9S,10S,12S,13R,14S,17R)-3,12-dihydroxy-10,13-dimethylhexadecahydro-1H-cyclopenta[a]phenanthren-17-yl) pentanamida]: the MIC against C. albicans DSY296 (setting [4]) was determined as 64 µg/mL (≈ 147 µM); with C. albicans H37 (setting [5]) it was 64 µg/mL (≈ 147 µM); with C. albicans FF176 (setting [6]), 32 µg/mL (≈ 73.6 µM); against C. albicans FF172, 64 µg/mL (≈ 147 µM); in the experiment with C. albicans DSY294 (C. albicans DSY294), 64 µg/mL (≈ 147 µM); in the experiment with Trichophyton rubrum FF5 it was 32 µg/mL (≈ 73.6 µM). In addition, the minimum inhibitory concentration (MIC) in experiment [3] is 64 µg/mL (≈ 147 µM); in the experiment with Microsporum canis FF1, 64 µg/mL (≈ 147 µM); in the experiment on Nannizzia gypsea FF3, 32 µg/mL (≈ 73.6 µM). Besides, the MLC in the experiment with C. albicans DSY296 (setting [4]) worked out at 64 µg/mL (≈ 147 µM); in the experiment with C. albicans H37 (setting [5]), 64 µg/mL (≈ 147 µM); in the experiment with C. albicans FF176 (setting [6]), 32 µg/mL (≈ 73.6 µM); in the experiment with C. albicans FF172, 64 µg/mL (≈ 147 µM); in the experiment with C. albicans DSY294 (C. albicans DSY294), 64 µg/mL (≈ 147 µM); in the experiment on Trichophyton rubrum FF5 it was 64 µg/mL (≈ 147 µM). Moreover, the results for the MLC (in [3]; with Microsporum canis FF1; with Nannizzia gypsea FF3) were 64 µg/mL (≈ 147 µM), 128 µg/mL (≈ 294 µM) and 32 µg/mL (≈ 73.6 µM), respectively. Further, the “influx of PI” value in the experiment on C. albicans ATCC 10231 [1] (32 μg/mL (½×MIC)) is given as “no evidence of influx of PI”. For the same compound, in the experiment on C. albicans ATCC 10231 [1] (128 and 64 μg/mL (2×MIC and MIC)), the “reduction of SYTO 9/PI ratio vs untreated control” value is “significant”. Moreover, the “levels of extracellular K+ vs untreated control” value in the experiment on C. albicans ATCC 10231 [2] (128, 64, and 32 μg/mL (2×MIC, MIC, ½×MIC)) is listed as “significant levels of extracellular K”.
For `OC(Cn1cncn1)(Cn1cncn1)c1ccc(F)cc1F` [Fluconazole, reference compound], the MIC is 64 µg/mL (≈ 209 µM) in the experiment on C. albicans DSY296 (Candida albicans, DSY296, read-out: MIC); at least 128 µg/mL in the experiment with C. albicans H37 (Candida albicans, H37, read-out: MIC); 32 µg/mL (≈ 104 µM) in the experiment on C. albicans FF176 (Candida albicans, FF176, read-out: MIC); 0.25 µg/mL (≈ 0.816 µM) in the experiment on C. albicans FF172 (Candida albicans, read-out: MIC); 0.125 µg/mL (≈ 0.408 µM) against C. albicans DSY294 (Candida albicans, DSY294); 16 µg/mL (≈ 52.2 µM) in the experiment with Trichophyton rubrum FF5 (read-out: MIC). The MIC in experiment [3] (ATCC10231, read-out: MIC) turned out to be 2 µg/mL (≈ 6.53 µM); with Microsporum canis FF1 (read-out: MIC), 32 µg/mL (≈ 104 µM); in the experiment on Nannizzia gypsea FF3 (read-out: MIC), 32 µg/mL (≈ 104 µM). For the same compound, the “levels of extracellular K+ vs untreated control” value in the experiment with C. albicans ATCC 10231 [2] (8 μg/mL) is recorded as “not”.

The record behind these values is patent US20250002450A1, “CATIONIC STEROID COMPOUNDS, METHOD OF OBTAINING THEREOF, FORMULATIONS COMPRISING THEREOF AND THEIR USES” (UNIVERSIDADE DO PORTO, priority 2021, published 2025).
